The structures appear in SMILES notation. Where a name gives a salt, the structure may show the parent alone.

In assay [1] the test system is mouse partial sciatic nerve ligation model (neuropathic pain). Briefly: Mouse partial sciatic nerve ligation model (Seltzer model), von Frey test. The format is in vivo. To be noted: for dose from which a statistically significant analgesic action started / persistence of analgesic action / time of strongest analgesic action after oral administration: oral administration; for dose from which a statistically significant analgesic action started: von Frey test; for persistence of analgesic action / time of strongest analgesic action after oral administration: von Frey test at 1, 2, 3 h. As to the method: The mouse partial sciatic nerve ligation model was prepared in accordance with the method of Seltzer et al. (Malmberg et al., Pain, vol. 76, p. 215-222, 1998).
Slc: ICR mice (5 weeks old, male; from Japan SLC, Inc.) or Cr1: CD1 (ICR) mice (5 weeks old, male; from CHARLES RIVER LABORATORIES JAPAN, INC.) were anesthetized with sodium pentobarbital (70 mg/kg, intraperitoneal administration). The sciatic nerve at the femoral region of the right hind paw of each mouse was exposed and triply ligated tightly with silk suture of 8-0 (from NATSUME SEISAKUSHO CO., LTD.) under a stereomicroscope so that only half thickness of the nerve was trapped in the ligature. A group of mice thus treated was designated as a partial sciatic nerve ligation group. A group of mice whose sciatic nerve was just exposed and not ligated was designated as a sham surgery group.
Evaluation of neuropathic pain (hereinafter referred to as von Frey test) was performed as follows. Mice were conditioned for at least one hour in an acrylic cage for measurement (from NATSUME SEISAKUSHO CO. LTD. or SHINANO SEISAKUSHO) placed on a wire net. Thereafter, using a filament (from North Coast Medical or neuroscience) which exerted a pressure of 0.16 g, the mice were subjected to mechanical tactile stimulus by applying the filament to the plantar surface of the right hind paw 3 times, each for 3 seconds, with an interval of 3 seconds.
Seven days after the sciatic nerve ligation surgery, the compound of Example 1, 2, 3, 4, 5, 7, 8, 9, 10, 11, 12 or 13 (10 mg/kg for each of the compounds of Example 1, 2, 3, 4, 5, 8, 10 and 13, 0.01 to 1 mg/kg for the compound of Example 7, 0.01 to 10 mg/kg for the compound of Example 9; 0.001 to 0.1 mg/kg for the compound of Example 11; and 0.01 to 1 mg/kg for the compound of Example 12) or pregabalin as a positive control (10 mg/kg; Bosche Scientific) was dissolved in distilled water and orally administered to mice of the partial sciatic nerve ligation group. The groups of the mice in the partial sciatic nerve ligation mouse to which the compound of Example 1, 2, 3, 4, 5, 7, 8, 9, 10, 11, 12 or 13 was administered were designated as a “partial sciatic nerve ligation+the compound of Example 1” group; a “partial sciatic nerve ligation+the compound of Example 2” group; a “partial sciatic nerve ligation+the compound of Example 3” group; a “partial sciatic nerve ligation+the compound of Example 4” group; a “partial sciatic nerve ligation+the compound of Example 5” group; a “partial sciatic nerve ligation+the compound of Example 7” group; a “partial sciatic nerve ligation+the compound of Example 8” group; a “partial sciatic nerve ligation+the compound of Example 9” group; a “partial sciatic nerve ligation+the compound of Example 10” group; a “partial sciatic nerve ligation+the compound of Example 11” group; a “partial sciatic nerve ligation+the compound of Example 12” group; and a “partial sciatic nerve ligation+the compound of Example 13” group, respectively. The partial sciatic nerve ligation mouse group to which pregabalin was administered was designated as a “partial sciatic nerve ligation+pregabalin” group. A group wherein distilled water was orally administered to the mice of the partial sciatic nerve ligation group was designated as a “partial sciatic nerve ligation+distilled water” group. A group wherein distilled water was orally administered to the mice of the sham surgery group was designated as a “sham surgery+distilled water” group.
The von Frey test was carried out before oral administration of a test compound (pre-value), one hour, two hours, and three hours after the oral administration of a test compound.
Slc: ICR mice (5 weeks old, male; Japan SLC, Inc.) were anesthetized with sodium pentobarbital (70 mg/kg, intraperitoneal administration).

For assay [2] the test system is unchanged. The assay is described as above. To be noted: Comparative Example 7: oral, 7 days after ligation, 1-3 h after dosing; 0.01-1 mg/kg (Comp Ex 1), 10 mg/kg (Comp Ex 3-6, pregabalin); vs ligation+distilled water; t-test corrected by Dunnett. The format is in vivo.

Turning to `CN(C)C1CCN(C(=O)CCc2nccn2C)CC1` [Comparative Example 1, 1-(4-(dimethylamino)piperidin-1-yl)-3-(1-methyl-1H-imidazol-2-yl)propan-1-one hydrochloride], in assay [1], the “dose from which a statistically significant analgesic action started” value amounted to 10 µg/kg; the “persistence of analgesic action” value was “tended to decrease 2 hours and 3 hours later”; the “time of strongest analgesic action after oral administration” value is recorded as “one”. For the same compound, the “analgesic action in von Frey test (total score)” value (“analgesic action … (total score)” for short) in assay [2] is “statistically significant analgesic action”.
As for `CC(C)n1ccnc1CCC(=O)N1CCC(N(C)C)CC1` [Comparative Example 6, 1-(4-(dimethylamino)piperidin-1-yl)-3-(1-isopropyl-1H-imidazol-2-yl)propan-1-one hydrochloride], in assay [1], the “persistence of analgesic action” value is “tended to decrease 2 hours and 3 hours later”; the “time of strongest analgesic action after oral administration” value is reported as “one”. In addition, the “analgesic action … (total score)” value in assay [2] was “statistically significant analgesic action”.
Take `CN(C)C1CCN(C(=O)C[C@H](O)c2nccn2C)CC1` [Example 11, (S)-1-(4-(dimethylamino)piperidin-1-yl)-3-hydroxy-3-(1-methyl-1H-imidazol-2-yl)propan-1-one]: the “time the analgesic action lasted after oral administration” value in assay [1] (dose of 0.1 mg/kg) is 3 h; in assay [1] (from a dose of 0.001 mg/kg), 2 h. The “analgesic action … (total score)” value in assay [1] (mouse, in vivo) is on record as “statistically significant analgesic action”. In assay [1], the “dose from which a statistically significant analgesic action started” value is 1 µg/kg.
